Converted amounts (≈) assume the structure as drawn. Some results are limits rather than exact numbers.

The test system of assay [1] is Mycobacterium tuberculosis. Briefly: Antimycobacterial activity against Mycobacterium tuberculosis H37Rv ATCC 27294 assessed as growth inhibition at 6.25 ug/ml after 5 to 8 days by microplate alamar blue assay relative to control. The class given is functional. To be noted: read-out: GI. On the technique in general: The colour change of resazurin is a common sign of viable cells or microbes.

Assay [2] concerns Mycobacterium tuberculosis. Description: Antitubercular activity against Mycobacterium tuberculosis H37Rv ATCC 27294 after 5 to 8 days by microplate alamar blue assay. The class given is functional.

As for `O=C1Nc2ccccc2C(=O)/C1=N/Nc1ccccc1`, the inhibition of growth at 6.25 µg/mL in assay [1] turned out to be 97%. In assay [2], the MIC (as a rule, the lowest concentration that inhibits growth of the organism) was less than 6.25 µg/mL.

Turning to `O=C1Nc2cc([N+](=O)[O-])ccc2C(=O)/C1=N/Nc1ccc(Br)cc1`, the inhibition of growth at 6.25 µg/mL in assay [1] stood at 100%. In assay [2], this compound returned an MIC of less than 6.25 µg/mL.

Regarding `O=C1Nc2cc([N+](=O)[O-])ccc2C(=O)/C1=N/Nc1ccccc1-c1ccccc1`, in assay [1], the inhibition of growth at 6.25 µg/mL amounted to 100%. Besides, in assay [2], the MIC is less than 6.25 µg/mL.

For `Cc1c(Cl)cccc1N/N=C1\C(=O)Nc2cc([N+](=O)[O-])ccc2C1=O`, the inhibition of growth at 6.25 µg/mL in assay [1] was 98%. In assay [2], the minimal inhibitory concentration (MIC) was less than 6.25 µg/mL.

For `O=C1Nc2ccc(Cl)cc2C(=O)/C1=N/Nc1ccc(Cl)cc1`, in assay [1], the inhibition of growth at 6.25 µg/mL came out at 98%. This compound also displayed an MIC in assay [2] of less than 6.25 µg/mL.

Turning to `Cc1cccc(N/N=C2\C(=O)Nc3c(cccc3[N+](=O)[O-])C2=O)c1`, in assay [1], the inhibition of growth at 6.25 µg/mL came out at 95%. Also, the MIC in assay [2] was less than 6.25 µg/mL.

Regarding `O=C1Nc2c(cccc2[N+](=O)[O-])C(=O)/C1=N/Nc1ccc(Cl)cc1`, in assay [1], the inhibition of growth at 6.25 µg/mL is 61%. Moreover, in assay [2], the MIC is less than 6.25 µg/mL.

`Cc1ccccc1N/N=C1/C(=O)c2ccccc2N(C)C1=O`: the inhibition of growth at 6.25 µg/mL in assay [1] amounted to 97%. The same compound displayed an MIC in assay [2] of less than 6.25 µg/mL.

On to `COc1ccccc1N/N=C1\C(=O)Nc2cc([N+](=O)[O-])ccc2C1=O`, for which the inhibition of growth at 6.25 µg/mL in assay [1] is 96%. In assay [2], this compound yielded an MIC of less than 6.25 µg/mL.

Turning to `O=C1Nc2ccc(Cl)cc2C(=O)/C1=N/Nc1cccc([N+](=O)[O-])c1`, the inhibition of growth at 6.25 µg/mL in assay [1] came to 96%. For the same compound, the MIC in assay [2] is less than 6.25 µg/mL.

As to `O=C1Nc2c(Cl)cccc2C(=O)/C1=N/Nc1ccccc1`, in assay [1], the inhibition of growth at 6.25 µg/mL stood at 100%. The same compound displayed an MIC in assay [2] of less than 6.25 µg/mL.

For `O=C1Nc2cc([N+](=O)[O-])ccc2C(=O)/C1=N/Nc1ccc(F)cc1`, the inhibition of growth at 6.25 µg/mL in assay [1] stood at 100%. The compound further registered an MIC in assay [2] of less than 6.25 µg/mL.

As to `O=C1Nc2c(cccc2[N+](=O)[O-])C(=O)/C1=N/Nc1ccccc1`, the inhibition of growth at 6.25 µg/mL in assay [1] was 99%. The same compound yielded an MIC in assay [2] of less than 6.25 µg/mL.

As for `CC(=O)c1ccc(N/N=C2\C(=O)Nc3c(ccc(Cl)c3Cl)C2=O)cc1`, the inhibition of growth at 6.25 µg/mL in assay [1] was determined as 98%. The MIC in assay [2] is less than 6.25 µg/mL.

`CO[C@H]1/C=C/O[C@@]2(C)Oc3c(C)c(O)c4c(O)c(c(/C=N/N5CCN(C)CC5)c(O)c4c3C2=O)NC(=O)/C(C)=C\C=C\[C@H](C)[C@H](O)[C@@H](C)[C@@H](O)[C@@H](C)[C@H](OC(C)=O)[C@@H]1C` [RIFAMPIN]: the inhibition of growth at 6.25 µg/mL in assay [1] was found to be 97%. Besides, 0.015 µg/mL (≈ 0.0182 µM) was the least that counted as inhibitory in assay [2] (MIC).

Values taken from ChEMBL document CHEMBL2417447, “Synthesis and binary QSAR study of antitubercular quinolylhydrazides” (2013).
